Experimental data as given in patent US4018778A, “Derivatives of 1-phenoxy-3-amino-propane-2-ol and process for their production” (Cassella Farbwerke Mainkur Aktiengesellschaft, priority 1972, dated 1977).

Assays:
[1] = test system: changes of the dp/dt max. after isoproterenol (left ventricular blood pressure); test: Antagonism of isoproterenol-induced change of left ventricular dp/dt max. in narcotised dogs (catheter tip manometer); type: in vivo; conditions: Canis lupus familiaris, iv, isoproterenol 0.5·10^-6 gram/kg i.v., cumulative doses of test substance
Procedure: Isoproterenol (0.5 ^. 10^-^6 gram/kg i.v.) was injected at intervals of 15 minutes before and after increasing doses of the test substance. The changes of the dp/dt max. after isoproterenol were determined before and after the intravenous administration of the test substance. These values were used to calculate the ED50. The doses quoted in each case are the cumulative doses of the test substance.

[2] = test system: heart (inotropic intrinsic action); conditions: words, cited from earlier work
[3] = test system: dp/dt (left ventricular blood pressure); test: Intrinsic (inotropic) action on the dp/dt; type: in vivo, dogs; conditions: number of - and + signs indicates strength of the effect

Q: With `CC(C)NCC(O)COc1cccc2ccccc12` (stereo not drawn) [Propranolol] as the compound, how does the ED50 [1] read?
A: 0.0561 mg/kg

Q: What about the “inotropic intrinsic action (clinical practice)” value [2] of the same compound?
A: strongly negative-inotropic intrinsic action

Q: What about the cardiac insufficiency risk ([2]; clinical practice) of the same compound?
A: capable of causing an acute cardiac insufficiency or liable to intensify an already existing cardiac insufficiency

Q: With `C=CCc1ccccc1OCC(O)CNC(C)CC(O)c1cccnc1` (stereo not drawn) [1-(3'-β-pyridyl-3'-hydroxy-1'-methyl-propylamino)-3-(o-allylphenoxy)-propan-2-ol] as the compound, how does the ED50 [1] read?
A: 0.0178 mg/kg

Q: With `COc1cccc(OCC(O)CNC(C)CC(O)c2cccnc2)c1` (stereo not drawn) [1-(3'-β-pyridyl-3'-hydroxy-1'-methyl-propylamino)-3-(m-methoxyphenoxy)-propan-2-ol] as the compound, how does the ED50 [1] read?
A: 0.012 mg/kg

Q: With `CC(CC(O)c1cccnc1)NCC(O)COc1ccc(Cl)cc1` (stereo not drawn) [1-(3'-β-pyridyl-3'-hydroxy-1'-methyl-propylamino)-3-(p-chlorophenoxy)-propan-2-ol] as the compound, how does the ED50 [1] read?
A: 0.03 mg/kg

Q: For `CCOc1ccc(OCC(O)CNC(C)CC(O)c2cccnc2)cc1` (single isomer, unassigned; (-)) [(-)-1-(3'-β-pyridyl-3'-hydroxy-1'-methyl-propylamino)-3-(p-ethoxyphenoxy)-propan-2-ol, laevo-rotatory], which “Intrinsic action on the dp/dt” value [3] is on record?
A: 0

Q: For `CC(CC(O)c1cccnc1)NCC(O)COc1ccccc1Cl` (stereo not drawn) [1-(3'-β-pyridyl-3'-hydroxy-1'-methyl-propylamino)-3-(o-chlorophenoxy)-propan-2-ol], which ED50 [1] is on record?
A: 0.0082 mg/kg

Q: And the “Intrinsic action on the dp/dt” value [3]?
A: 0

Q: With `CCOc1ccccc1OCC(O)CNC(C)CC(O)c1cccnc1` (single isomer, unassigned; (-)) [(-)-1-β-Pyridyl-3-[3-(o-ethoxyphenoxy)-2-hydroxy-propylamino]-butan-1-ol (laevo-rotatory)] as the compound, how does the ED50 [1] read?
A: 0.0026 mg/kg

Q: Which ED50 [1] does the source give for `CCCCCOc1ccc(OCC(O)CNC(C)CC(O)c2cccnc2)cc1` (stereo not drawn) [1-(3'-β-pyridyl-3'-hydroxy-1'-methyl-propylamino)-3-(p-pentoxyphenoxy)-propan-2-ol] here?
A: 0.0184 mg/kg

Q: And the “Intrinsic action on the dp/dt” value [3]?
A: 0

Q: Which ED50 [1] does the source give for `COc1ccccc1OCC(O)CNC(C)CC(O)c1cccnc1` (stereo not drawn) [1-(3'-β-pyridyl-3'-hydroxy-1'-methyl-propylamino)-3-(o-methoxyphenoxy)-propan-2-ol] here?
A: 0.006 mg/kg

Q: With `Cc1cccc(OCC(O)CNC(C)CC(O)c2cccnc2)c1` (stereo not drawn) [1-(3'-β-pyridyl-3'-hydroxy-1'-methyl-propylamino)-3-(m-methylphenoxy)-propan-2-ol] as the compound, how does the ED50 [1] read?
A: 0.0175 mg/kg

Q: With `CCOc1ccc(OCC(O)CNC(C)CC(O)c2cccnc2)cc1` (stereo not drawn) [1-(3'-β-pyridyl-3'-hydroxy-1'-methyl-propylamino)-3-(p-ethoxyphenoxy)-propan-2-ol] as the compound, how does the ED50 [1] read?
A: 0.0448 mg/kg

Q: With `CC(=O)Nc1ccc(OCC(O)CNC(C)CC(O)c2cccnc2)cc1` (stereo not drawn) [1-(3'-β-pyridyl-3'-hydroxy-1'-methyl-propylamino)-3-(p-acetamino-phenoxy)-propan-2-ol] as the compound, how does the ED50 [1] read?
A: 0.0146 mg/kg

Q: With `CCCOc1ccc(OCC(O)CNC(C)CC(O)c2cccnc2)cc1` (stereo not drawn) [1-(3'-β-pyridyl-3'-hydroxy-1'-methyl-propylamino)-3-(p-propoxyphenoxy)-propan-2-ol] as the compound, how does the ED50 [1] read?
A: 0.0167 mg/kg

Q: For `CC(CC(O)c1cccnc1)NCC(O)COc1ccccc1-c1ccccc1` (stereo not drawn) [1-(3'-β-Pyridyl-3'-hydroxy-1'-methyl-propylamino)-3-(o-phenylphenoxy)-propan-2-ol], which “Intrinsic action on the dp/dt” value [3] is on record?
A: 0

Q: For `CCOc1ccccc1OCC(O)CNC(C)CC(O)c1cccnc1` (stereo not drawn) [1-(3'-β-Pyridyl-3'-hydroxy-1'-methyl-propylamino)-3-(o-ethoxyphenoxy)-propan-2-ol], which ED50 [1] is on record?
A: 0.0151 mg/kg

Q: What about the “Intrinsic action on the dp/dt” value [3] of the same compound?
A: 0

Q: Which ED50 [1] does the source give for `C=CCOc1ccccc1OCC(O)CNC(C)CC(O)c1cccnc1` (stereo not drawn) [1-(3'-β-pyridyl-3'-hydroxy-1'-methyl-propylamino)-3-(o-allyloxyphenoxy)-propan-2-ol] here?
A: 0.008 mg/kg
